Measured values reported in a compilation of properties of binary mixtures (doi:10.1016/j.molliq.2016.01.096).

Test: xn = mol fraction of the nth substance listed
Details: 100 kPa

CCOS(=O)(=O)[O-].CC[n+]1ccn(C)c1 + CCOCCO
x2 = 0
Details | speed of sound [m/s]
298.15 K | 1680.8
318.15 K | 1632.4
328.15 K | 1608.9

CCOCCO + CCOS(=O)(=O)[O-].CC[n+]1ccn(C)c1
speed of sound [m/s]
Details | 298.15 K | 308.15 K | 318.15 K | 328.15 K
x1 = 0.0588 | – | – | 1620.5 | –
x1 = 0.1202 | 1654.9 | 1630.3 | – | 1581.6
x1 = 0.1846 | 1638.2 | 1613.2 | 1588.4 | 1563.9
x1 = 0.2326 | – | 1599.2 | – | –
x1 = 0.3548 | 1586.6 | 1560.3 | 1534.4 | 1509
x1 = 0.4516 | – | 1526.4 | 1499.8 | 1473.7
x1 = 0.5511 | 1516.8 | 1488.9 | 1461.4 | –
x1 = 0.6529 | 1476.3 | 1447.6 | 1419.1 | 1390.8
x1 = 0.741 | – | – | 1379.3 | –
x1 = 0.8273 | – | – | 1336.7 | 1305.7
x1 = 0.8658 | – | – | 1316.4 | –
x1 = 0.9094 | 1356.8 | 1324.7 | 1291.9 | 1259.3
x1 = 0.9512 | 1333.2 | 1300.2 | 1266.4 | 1232.9
x1 = 1 | 1302.8 | 1268.6 | 1233.3 | 1198.8
